Laboratory results published in US5770573A, “CS-1 peptidomimetics, compositions and methods of using the same” (Cytel Corporation, priority 1995, dated 1998).
Square brackets hold non-standard residues; d marks the D form. Peptide text beside a SMILES is read from it. * marks the point of attachment. ξ: configuration not given here. Phe(4-NO2) = N[C@@H](Cc1ccc([N+](=O)[O-])cc1)C(=O)O; Biotin = O=C1N[C@H]2[C@H](CS[C@H]2CCCCC(=O)*)N1; Quinoline3carbonyl = O=C(c1cnc2ccccc2c1)*; Pyrazinecarbonyl = O=C(c1cnccn1)*; Quinaldoyl = O=C(c1ccc2ccccc2n1)*; Brosyl = O=S(=O)(c1ccc(Br)cc1)*; Cha = N[C@@H](CC1CCCCC1)C(=O)O; X15 = O=S(=O)(c1cccc2cccnc12)*; ξAtc = NC1(C(=O)O)CCc2ccccc2C1; NMeL = CN[C@@H](CC(C)C)C(=O)O; Phg = N[C@H](C(=O)O)c1ccccc1; NMeV = CN[C@H](C(=O)O)C(C)C; X19 = O=C(Cc1ccc(Br)cc1)*; Nle = CCCC[C@H](N)C(=O)O; Nva = CCC[C@H](N)C(=O)O; PhAc = O=C(Cc1ccccc1)*; X18 = O=C(c1cn[nH]c1)*; Ahx = NCCCCCC(=O)O

target: VLA-4 (Homo sapiens, UniProt P05556+P13612); experiment: In vitro binding inhibition of 51Cr-labeled Jurkat cells to solid phase-bound CS-1 compound (SEQ ID NO:1); assay type: cell-based; parameters: inflammatory cells that contain the VLA-4 receptor [Jurkat cells; host or cells: Jurkat (human T lymphoblastic line); conditions: not given
Description: Binding inhibition is measured here as a concentration of compound that inhibits one-half the binding between a standard number of Jurkat cells and a standard amount of CS-1 compound bound to the surface of a microtiter plate well. Those concentrations are conveniently expressed as IC50 values, smaller numbers indicating a lower concentration required to inhibit 50 percent binding and therefore greater potency. Further specifics of this assay are provided hereinafter.
Jurkat cells (ATCC TIB 152), a human T lymphoblastic line, labeled with ^51 chromium were used to assay in vitro binding inhibition provided by various compounds discussed herein.
The plates were prepared as follows: The 25-mer CS-1 compound (SEQ ID NO:1) dissolved at 0.5-1 μg/ml in a buffer of 0.1M NaHCO3 at pH 9.5 that also contained 10 μg/ml of bovine serum albumin (BSA) or a conjugate of the CS-1 compound linked to […] (CS-1-OVA) dissolved at 1-2.5 μg/ml in the same buffer was used as the substrate. Each well of the microtiter plates was coated with 50 μl of substrate or buffer alone for controls. The wells were permitted to dry out completely and were then rinsed twice with PBS at pH 7.4. Non-specific binding sites of each well were then blocked using 200 μl per well of RPMI/1 percent BSA for two hours at room temperature.
Jurkat cells (3-5×10^6 cells) were placed into a 15 ml Falcon™ round-bottom tube with a cap. The tube was centrifuged, and the extra medium was then removed.
Two hundred microliters of a ^51 Cr labeling solution were added to the centrifuged cells and maintained in contact with the cells for 90-120 minutes in a warm room. […] Longer contact times provide a greater amount of labeling but lower cell viability.
The labeled cells are washed with (i) complete medium, (ii) 1 mM EDTA/PBS and then (iii) RPM1/1 percent BSA free of serum components. The cells are centrifuged after each washing. The cells are finally resuspended in serum-free RPMI/1 percent BSA at a concentration of 1×10^6 viable cells/ml, which provides a concentration that is diluted by one-half in the assay.
Inhibitor compounds are prepared as stock solutions at 20 mg/ml in DMSO in 1.5 ml cryogenic screwcap vials, and were stored at -70° C. Using Flow™ round-bottom or V-bottom microtiter plates, the inhibitor compounds were prepared at twice the assay concentration in RPMI/1 percent BSA at 60 μl/well.
Four initial dilutions were typically used.
The ^51 Cr-labeled cells ([…] at 60 μl/well) were then admixed with the diluted compound solutions. The admixtures were maintained at room temperature (about 22° C.) for 30 minutes.
One hundred microliters of each inhibitor compound/cell admixture were transferred to the substrate-coated wells. This was done in triplicate for each dilution. The resulting plates were incubated for 30 minutes at 37° C. and then washed gently three times with RPMI/1 percent BSA at 200 μl/well. Binding was observed microscopically, particularly after the second wash.
The bound cells were then lysed by the addition of a 0.5 percent solution of sodium dodecylsulfate in water at 100 μl/well. The resulting solutions were then processed for counting and calculation of IC50 values following usual procedures.
The data of Table 1 are normalized to the binding of SEQ ID NO: 3. […] Multiple assays for the same compound were averaged.

Chain of VLA-4 (P13612 34-1032): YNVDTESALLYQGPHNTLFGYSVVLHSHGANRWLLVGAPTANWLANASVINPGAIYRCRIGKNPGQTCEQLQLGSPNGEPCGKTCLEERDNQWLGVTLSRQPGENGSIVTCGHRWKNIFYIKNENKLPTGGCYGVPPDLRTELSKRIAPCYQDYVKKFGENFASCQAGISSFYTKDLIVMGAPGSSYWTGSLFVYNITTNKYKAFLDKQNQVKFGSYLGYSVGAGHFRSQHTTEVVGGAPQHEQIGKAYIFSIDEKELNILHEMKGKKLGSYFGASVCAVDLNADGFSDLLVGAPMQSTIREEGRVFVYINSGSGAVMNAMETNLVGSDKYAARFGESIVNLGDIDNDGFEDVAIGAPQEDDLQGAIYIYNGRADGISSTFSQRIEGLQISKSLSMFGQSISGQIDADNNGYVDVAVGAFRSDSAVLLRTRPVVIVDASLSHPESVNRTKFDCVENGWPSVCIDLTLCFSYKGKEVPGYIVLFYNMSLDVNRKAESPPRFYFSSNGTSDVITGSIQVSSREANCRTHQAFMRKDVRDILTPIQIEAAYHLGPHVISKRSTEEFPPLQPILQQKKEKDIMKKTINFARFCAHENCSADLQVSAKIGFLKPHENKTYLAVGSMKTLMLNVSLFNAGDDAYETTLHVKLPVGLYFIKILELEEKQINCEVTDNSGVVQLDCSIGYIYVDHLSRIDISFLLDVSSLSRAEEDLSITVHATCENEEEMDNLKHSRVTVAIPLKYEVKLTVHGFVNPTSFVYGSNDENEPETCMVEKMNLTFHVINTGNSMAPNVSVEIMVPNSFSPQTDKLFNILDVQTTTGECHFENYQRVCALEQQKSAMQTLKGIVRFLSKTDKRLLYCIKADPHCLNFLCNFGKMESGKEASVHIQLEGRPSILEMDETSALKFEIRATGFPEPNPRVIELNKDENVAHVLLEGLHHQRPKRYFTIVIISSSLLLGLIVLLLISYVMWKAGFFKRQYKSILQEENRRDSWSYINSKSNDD
Chain of VLA-4 (P05556 21-798): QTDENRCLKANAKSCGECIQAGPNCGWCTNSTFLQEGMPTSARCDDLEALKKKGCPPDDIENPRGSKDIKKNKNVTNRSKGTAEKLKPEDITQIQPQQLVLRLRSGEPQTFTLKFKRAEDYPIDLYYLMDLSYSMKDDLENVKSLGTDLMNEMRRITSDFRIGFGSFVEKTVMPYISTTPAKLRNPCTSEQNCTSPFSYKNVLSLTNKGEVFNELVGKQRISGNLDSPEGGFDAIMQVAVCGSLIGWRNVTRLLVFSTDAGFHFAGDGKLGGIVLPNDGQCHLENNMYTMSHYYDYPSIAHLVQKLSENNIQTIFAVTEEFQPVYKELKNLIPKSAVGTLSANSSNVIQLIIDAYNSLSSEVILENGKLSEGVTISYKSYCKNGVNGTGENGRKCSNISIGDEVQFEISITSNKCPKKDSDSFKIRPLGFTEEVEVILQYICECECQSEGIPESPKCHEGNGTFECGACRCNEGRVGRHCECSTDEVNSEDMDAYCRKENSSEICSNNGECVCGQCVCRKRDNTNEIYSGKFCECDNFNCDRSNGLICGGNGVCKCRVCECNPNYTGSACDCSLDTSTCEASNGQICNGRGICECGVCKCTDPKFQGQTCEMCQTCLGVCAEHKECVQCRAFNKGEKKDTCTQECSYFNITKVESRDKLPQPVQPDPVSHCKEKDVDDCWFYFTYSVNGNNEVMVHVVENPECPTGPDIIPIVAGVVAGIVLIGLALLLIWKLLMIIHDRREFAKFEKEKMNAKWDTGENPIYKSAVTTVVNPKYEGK

| Relative Potency | Relative Potency (prodrug compound) | Compound |
| --- | --- | --- |
| 43.7 |  | CC(C)C[C@@H](C(=O)N[C@@H](CC(=O)O)C(=O)N[C@@H](Cc1ccccc1)C(=O)N1CCC[C@@H]1C(N)=O)n1c(=O)[nH]c2ccccc2c1=O [896.63] |
| 3.29 |  | CC(C)C[C@H](NC(=O)C(C)(C)C)C(=O)N[C@@H](CC(=O)O)C(=O)N[C@H](C(=O)N1CCC[C@H]1C(N)=O)C(C)C [926.01] |
| 1.83 |  | CC[C@@H](C)[C@@H](N)C(=O)N[C@@H](CC(C)C)C(=O)N[C@@H](CC(=O)O)C(=O)N[C@H](C(=O)N1CCC[C@@H]1C(N)=O)C(C)C [926.03] |
| 1.88 |  | CC(C)C[C@H](NC(=O)[C@@H](N)Cc1ccccc1)C(=O)N[C@@H](CC(=O)O)C(=O)N[C@H](C(=O)N1CCC[C@@H]1C(N)=O)C(C)C [926.04] (H-FLDV[dP]-NH2) |
| .94 |  | CC(C)C[C@H](NC(=O)[C@H](N)Cc1ccccc1)C(=O)N[C@@H](CC(=O)O)C(=O)N[C@H](C(=O)N1CCC[C@@H]1C(N)=O)C(C)C [926.05] (H-[dF]LDV[dP]-NH2) |
| .08 |  | CC[C@H](C)[C@H](N)C(=O)N[C@@H](Cc1ccccc1)C(=O)N[C@@H](CC(=O)O)C(=O)N[C@H](C(=O)N1CCC[C@H]1C(N)=O)C(C)C [926.07] (H-IFDVP-NH2) |
| .47 |  | CC[C@H](C)[C@H](N)C(=O)N[C@@H](CC1CCCCC1)C(=O)N[C@@H](CC(=O)O)C(=O)N[C@H](C(=O)N1CCC[C@H]1C(N)=O)C(C)C [926.08] (H-I[Cha]DVP-NH2) |
| .41 |  | CCCC[C@H](NC(=O)[C@@H](N)[C@@H](C)CC)C(=O)N[C@@H](CC(=O)O)C(=O)N[C@H](C(=O)N1CCC[C@H]1C(N)=O)C(C)C [926.09] (H-I[Nle]DVP-NH2) |
| .13 |  | CCC[C@H](NC(=O)[C@@H](N)[C@@H](C)CC)C(=O)N[C@@H](CC(=O)O)C(=O)N[C@H](C(=O)N1CCC[C@H]1C(N)=O)C(C)C [926.10] (H-I[Nva]DVP-NH2) |
| .06 |  | CC[C@H](C)[C@H](N)C(=O)N(C)[C@@H](CC(C)C)C(=O)N[C@@H](CC(=O)O)C(=O)N[C@H](C(=O)N1CCC[C@H]1C(N)=O)C(C)C [926.11] (H-I[NMeL]DVP-NH2) |
| 1.99 |  | CC[C@H](C)[C@H](N)C(=O)N[C@@H](CC(C)C)C(=O)N[C@@H](CC(=O)O)C(=O)N[C@@H](Cc1ccccc1)C(=O)N1CCC[C@H]1C(N)=O [926.12] (H-ILDFP-NH2) |
| .3 |  | CC[C@H](C)[C@H](N)C(=O)N[C@@H](CC(C)C)C(=O)N[C@@H](CC(=O)O)C(=O)N[C@@H](CCSC)C(=O)N1CCC[C@H]1C(N)=O [926.13] (H-ILDMP-NH2) |
| .13 |  | CC[C@H](C)[C@H](N)C(=O)N[C@@H](CC(C)C)C(=O)N[C@@H](CC(=O)O)C(=O)N[C@@H](CC1CCCCC1)C(=O)N1CCC[C@H]1C(N)=O [926.14] (H-ILD[Cha]P-NH2) |
| .08 |  | CCCC[C@H](NC(=O)[C@H](CC(=O)O)NC(=O)[C@H](CC(C)C)NC(=O)[C@@H](N)[C@@H](C)CC)C(=O)N1CCC[C@H]1C(N)=O [926.15] (H-ILD[Nle]P-NH2) |
| .34 |  | CCC[C@H](NC(=O)[C@H](CC(=O)O)NC(=O)[C@H](CC(C)C)NC(=O)[C@@H](N)[C@@H](C)CC)C(=O)N1CCC[C@H]1C(N)=O [926.16] (H-ILD[Nva]P-NH2) |
| .21 |  | CC[C@H](C)[C@H](N)C(=O)N[C@@H](CC(C)C)C(=O)N[C@@H](CC(=O)O)C(=O)N[C@H](C(=O)N1CCC[C@H]1C(N)=O)[C@@H](C)CC [926.17] (H-ILDIP-NH2) |
| 0 |  | CC[C@H](C)[C@H](N)C(=O)N[C@@H](CC(C)C)C(=O)N[C@@H](CC(=O)O)C(=O)N(C)[C@H](C(=O)N1CCC[C@H]1C(N)=O)C(C)C [926.18] (H-ILD[NMeV]P-NH2) |
| 0.01 |  | CC(C)C[C@H](N)C(=O)N[C@@H](CC(=O)O)C(=O)N[C@H](C(N)=O)C(C)C [926.29] (H-Leu-Asp-Val-NH2) |
| 0.01 |  | CC(C)C[C@H](N)C(=O)N[C@@H](CC(=O)O)C(=O)N[C@@H](Cc1ccccc1)C(N)=O [926.31] (H-Leu-Asp-Phe-NH2) |
| .47 |  | CC(=O)N[C@@H](CC(C)C)C(=O)N[C@@H](CC(=O)O)C(=O)N[C@@H](Cc1ccccc1)C(N)=O [926.32] (Ac-Leu-Asp-Phe-NH2) |
| 19.4 |  | CC(C)C[C@H](NC(=O)c1cnccn1)C(=O)N[C@@H](CC(=O)O)C(=O)N[C@@H](Cc1ccccc1)C(=O)N1CCC[C@@H]1C(N)=O [951.02] (Pyrazinecarbonyl-LDF[dP]-NH2) |
| 28.2 |  | CC(C)C[C@H](NC(=O)c1cn[nH]c1)C(=O)N[C@@H](CC(=O)O)C(=O)N[C@@H](Cc1ccccc1)C(=O)N1CCC[C@@H]1C(N)=O [951.03] (X18-LDF[dP]-NH2) |
| 56.3 |  | CC(C)C[C@H](NC(=O)c1cnc2ccccc2c1)C(=O)N[C@@H](CC(=O)O)C(=O)N[C@@H](Cc1ccccc1)C(=O)N1CCC[C@@H]1C(N)=O [951.05] (Quinoline3carbonyl-LDF[dP]-NH2) |
| 1.57 |  | CC(C)C[C@H](NS(=O)(=O)c1cccc2cccnc12)C(=O)N[C@@H](CC(=O)O)C(=O)N[C@@H](Cc1ccccc1)C(=O)N1CCC[C@@H]1C(N)=O [951.07] (X15-LDF[dP]-NH2) |
| 6.26 |  | CC(C)C[C@H](NC(=O)Cc1ccc(Br)cc1)C(=O)N[C@@H](CC(=O)O)C(=O)N[C@@H](Cc1ccccc1)C(=O)N1CCC[C@@H]1C(N)=O [951.08] (X19-LDF[dP]-NH2) |
| .63 |  | CC(C)C[C@H](NS(=O)(=O)c1ccc(Br)cc1)C(=O)N[C@@H](CC(=O)O)C(=O)N[C@@H](Cc1ccccc1)C(=O)N1CCC[C@@H]1C(N)=O [951.10] (Brosyl-LDF[dP]-NH2) |
| 2.5 |  | CC(C)C[C@H](NC(=O)[C@H]1CCCN1)C(=O)N[C@@H](CC(=O)O)C(=O)N[C@@H](Cc1ccccc1)C(=O)N1CCC[C@@H]1C(N)=O [951.11] (H-[dP]LDF[dP]-NH2) |
| 61.8 |  | CC(C)C[C@H](NC(=O)[C@@H]1CCCN1)C(=O)N[C@@H](CC(=O)O)C(=O)N[C@@H](Cc1ccccc1)C(=O)N1CCC[C@@H]1C(N)=O [951.12] (H-PLDF[dP]-NH2) |
|  | 74.5 | CC(C)C[C@H](NC(=O)[C@H](Cc1ccccc1)NC(=O)CCCCCNC(=O)CCCC[C@@H]1SC[C@@H]2NC(=O)N[C@@H]21)C(=O)N[C@@H](CC(=O)O)C(=O)N[C@@H](Cc1ccccc1)C(=O)N1CCC[C@@H]1C(N)=O [951.13] ({Biotin-Ahx}-FLDF[dP]-NH2) |

| Compound | Relative Potency | Relative Potency (prodrug compound) |
| --- | --- | --- |
| CC(C)C[C@H](NC(=O)c1ccc2ccccc2n1)C(=O)N[C@@H](CC(=O)O)C(=O)N[C@@H](Cc1ccccc1)C(=O)N1CCC[C@@H]1C(N)=O [951.06] (Quinaldoyl-LDF[dP]-NH2) | 8.97 |  |

same assay, conditions: binding inhibition potency relative to standard compound of SEQ ID NO:3 = 1 (normalized IC50); about one-tenth or less assigned zero

| Compound | Relative Potency |
| --- | --- |
| CC(C)C[C@H](NC(=O)Cc1ccccc1)C(=O)N[C@@H](CC(=O)O)C(=O)NC1(C(=O)N2CCC[C@@H]2C(N)=O)CCc2ccccc2C1 (stereo partly drawn) [896.65] (PhAc-LD[ξAtc][dP]-NH2) | 1.25 |
| CC(C)C[C@H](NC(=O)Cc1ccccc1)C(=O)N[C@@H](CC(=O)O)C(=O)N[C@@H](Cc1ccc([N+](=O)[O-])cc1)C(=O)N1CCC[C@@H]1C(N)=O [896.68] (PhAc-LD[Phe(4-NO2)][dP]-NH2) | 39.9 |
| CC(C)C[C@H](NC(=O)Cc1ccccc1)C(=O)N[C@@H](CC(=O)O)C(=O)N[C@H](C(=O)N1CCC[C@@H]1C(N)=O)c1ccccc1 [896.69] (PhAc-LD[Phg][dP]-NH2) | 61 |
| CC(C)C[C@H](NC(=O)Cc1ccccc1)C(=O)N[C@@H](CC(=O)O)C(=O)N[C@@H](CO)C(=O)N1CCC[C@@H]1C(N)=O [896.72] (PhAc-LDS[dP]-NH2) | 16.9 |
| CC(C)C[C@H](NC(=O)c1ccccc1)C(=O)N[C@@H](CC(=O)O)C(=O)N[C@H](C(=O)N1CCC[C@@H]1C(N)=O)C(C)C [926.02] | 9.6 |
| CC(=O)N[C@@H](CC(C)C)C(=O)N[C@@H](CC(=O)O)C(=O)N[C@H](C(N)=O)C(C)C [926.30] (Ac-Leu-Asp-Val-NH2) | .63 |
